According to patent publication US9017938B2, “Use of microrna-199b-5p in medical and diagnostic field” (Advanced Accelerator Applications, priority 2009, dated 2015):

What was measured:
Daoy cells [1] = assay: Orthotopic cerebellar xenograft (BLI, PET-CT, immunohistochemistry); type: in vivo, nude mice; details: 199bSC1 clone injected into fourth ventricle, four weeks, vs control cells
Procedure: The mice were kept in a ventilated cage (26° C.) for 1 h prior to imaging studies. Anesthesia was performed with intraperitoneal administration of a mixture of ketamine (100 mg/kg) and xylazine (10 mg/kg) (injection volume, 100 μl/10 g). PET was performed 1 h after administration of 3′-deoxy-3′-[18F]fluorothymidine ([18F]FLT), a marker of tumor proliferation (50 μL; 7.4 MBq; scan time, 18 min), in a lateral caudal vein, using an animal PET scanner (GE Healthcare eXplore Vista, FWHM 1.6 mm). High resolution CT studies (GE Healtcare eXplore Locus; spatial resolution, 45 μm) were performed within 24 h from the PET.
Lesion volumes were calculated from PET data using in-house-developed software (based on IDL, ITT Vis Inc), by summarizing all spatially connected voxels with SUV>50% SUVmax. Lesion profiles defined with these procedures were used for ROI-based comparison between AdV5-Mock and AdV5-199b.
Unmasking was performed in 10 mM citrate buffer, pH 6, at 97° C. for 45 min. […]
To establish intracerebellar xenograft models, 6-to-8-week-old SCID mice were anesthetized with Tribromoethanol (Avertin®) (50 mg/kg); after this, a small skin incision (1 mm) was made and a burr hole (0.7 mm in diameter) created with a microsurgical drill (Fine Science Tools, Foster City, Calif.). […] The animals were monitored weekly by bioluminescence to evaluate tumor growth for 8 weeks.

Daoy cells [2] = assay: s.c. flank xenograft with bioluminescence imaging; type: in vivo, athymic nude/nude mice
Procedure: Stable Daoy cell clones were generated by transfecting a luciferase-expressing vector (the firefly luciferase gene cloned in the plentiV5 vector; Invitrogen) into the stable 199bSC1 clone or into the control empty-vector clone. Then 100,000 viable 199b-Luc1 and Ctl-Luc-4 cells were mixed with a 1:1 PBS:matrigel solution (BD Biosciences, San Jose, Calif.). Six-week-old female athymic mice were anesthetised using avertin (Sigma) as a 3% solution in tert-amyl alcohol (Fisher), at a dose of 3 mg per 10 g body weight. The mice were injected s.c. with a total volume of 0.1 mL of matrigel PBS cell suspension, into each flank. The mice were imaged after the implantation of the cells, with tumor growth monitored by weekly bioluminescence acquisitions (BLI) using an MS 3D Illumina Imaging System (Xenogen Corp. Alameda, Calif.). For the acquisitions, the mice were […] with 100 μL D-luciferin (15 mg/mL stock) per 10 g body weight, and imaged for 30 s, 10 min after luciferin injection; four acquisitions per mouse were made (ventral, dorsal and each flank). To quantify the bioluminescence, the integrated fluxes of photons (photons per s) within each area of interest were determined using the Living Images Software Package 3.0 (Xenogen-Caliper). The emission data from the start of tumor growth were collected for at least 6 weeks, and then were normalized to the bioluminescence on the injection day. Calliper measurements of tumor sizes were made weekly, along the long and short axes, and estimations of their volumes were made using the formula: width2×length×0.52.

ONS76 cells = assay: Proliferation assay MTS, ONS76; type: cell-based; details: transient transfection vs mock-transfected cells
Procedure: Cell proliferation was determined using the CellTiter96 AQueous Non-Radioactive Cell Proliferation Assay Kit (Promega Madison, Wis.). The cells were seeded into 96-well plates at a density of 1×10^3 cells/well in EMEM without or with FBS. After 0, 24, 48 and 72 h, MTS ([3-(4,5-dimethylthiazol-2-yl)-5-(3-carboxymethoxyphenyl)-2-(4-sulfophenyl)-2H-tetrazolium]) and PMS (phenazine methosulfate) were added to each well and after 4 h the absorbance of each well was measured at 490 nm (OD490) using Multilabel counter Victor^3 (Perkin Elmer). Each condition was performed with five wells and each experiment was repeated twice.

Daoy cells [3] = assay: Expression of differentiation and proliferation markers (real-time PCR, Western blot); type: cell-based, human
Procedure: Total RNA was extracted from the cell lines using the Trizol reagent (Invitrogen). Synthesis of cDNA from total RNA (4 μg) was performed using a Super Script II First Strand Kit (Invitrogen). Real-time quantitative PCR was performed using standard protocols with an Applied Biosystems ABI PRISM 7900HT Sequence Detection system. To calculate the relative gene expression of the miR-199b-5p precursor, the relative amounts of each pre-miRNA were normalized to U6 miRNA; the other genes were normalized using the β-actin gene. Real-time PCR primers for each gene were designed using Primer Express software version 2.0 (Applied Biosystems). The primer sequences are available upon request.
Thirty μg cytosolic or nuclear lysates were loaded onto 12% polyacrilamide gels, and blotted onto polyvinylidene difluoride membranes (PVDF; BioRad, Milan, Italy). The membranes were then incubated with anti-HES1 (kind gift of Dr. Tetsuo Sudo TORAY Industries, Tebiro Kamakura, Japan), a polyclonal rabbit antibody (1:500), an anti-GSK3-β (B&D Bioscience) monoclonal antibody (1:2500), an anti-c-Myc polyclonal rabbit antibody (1:200) (Santa Cruz Biotechnology, Santa Cruz, Calif., USA), an anti-GABRA6 antibody (Santa Cruz Biotechnology, Santa Cruz, USA) (1:200), an anti-MATH3 antibody (Santa Cruz Biotechnology, Santa Cruz, USA) (1:200) and an anti-cyclin D1 (1:200) polyclonal rabbit antibody (Cell Signaling). An anti-β-actin antibody (1:1.000) (Sigma) was used as the control for equal loading of cytosolic lysates and a polyclonal anti-β-laminin antibody (1:50) (Santa Cruz Biotechnology, Santa Cruz, Calif., USA) for equal loading of nuclear lysates.

[4] = Western blot, stable 199bSC1 clone

miR-199b-5p: mature microRNA CCCAGUGUUUAGACUAUCUGUUC (SEQ ID NO:11); over-expressed from pre-miR-199b construct, e.g. stable Daoy clones 199bSC1, 199bMC1 (listed as RNA, chemistry not fully specified)
tumor growth by BLI (Daoy cells [1]): considerably lower | tumor volumes, control flanks vs miR-199b-5p flanks (Daoy cells [2]; 199b-Luc1 vs Ctl-Luc-4 Daoy clones): significant difference in tumor volumes | mice with statistically significant difference in bioluminescence signal between control and miR-199b-5p sides (Daoy cells [2]; after nine weeks): four out of the five | tumors detectable macroscopically (Daoy cells [2]; s.c. injection of Daoy cells over-expressing miR-199b-5p, nine weeks (control cells 5/5)): 3/5 | proliferation (ONS76 cells): decreased proliferation | GABRA6 protein (Daoy cells [3]; [4]): up-regulated | MATH3 protein (Daoy cells [3]; [4]): up-regulated | c-Myc protein (Daoy cells [3]; [4]): decreased | cyclin D1 protein (Daoy cells [3]; [4]): decreased | expression of pro-neural bHLH (MASH1, MATH3, NGN2) (Daoy cells [3]; real-time PCR, both stable clones): increases in expression | MAP2 mRNA expression (Daoy cells [3]; real-time PCR, stable 199bSC1 and 199bMC1 clones): up-regulated | GFAP levels (Daoy cells [3]; real-time PCR, stable 199bSC1 clone): increased | GABRA6 mRNA expression (Daoy cells [3]; real-time PCR, stable clones): significantly over-expressed | c-Myc expression (Daoy cells [3]; real-time PCR, stable clones): decreased | cyclin D1 expression (Daoy cells [3]; real-time PCR, stable clones): decreased
